# Data: article PMC8072719, “Synthesis and Antiproliferative Activity of Triazoles Based on 2-Azabicycloalkanes” (Materials, 2021)
# Where two headings read alike, the source gives them in different places.
# Assays:
# Hs294T = assay: Growth inhibition assay (SRB assay), melanoma cell line Hs294T; format: cell-based, human; conditions: 72 h, mean ± SD
# Protocol: (§1) Three human cancer cell lines were used to evaluate the antiproliferative activity of the obtained compounds: melanoma cell line Hs294T, pancreatic tumor cell line MIA PaCa-2, and lung tumor cell line NCI-H1581. The normal mouse fibroblasts cell line (BALB/3T3 clone A31) was selected as reference. All these lines were purchased from the ATCC (American Type Culture Collection, Rockville, MD, USA). NCI-H1581 cells were grown in RPMI 1640 with GlutaMax medium (Gibco, Thermo Fisher Scientific, Leicestershire, UK) with 5% fetal bovine serum (FBS; HyClone, GE Healthcare, Logan, UT, USA). Hs294T and BALB/3T3 cells were grown in Dulbecco’s Modified Eagle Medium (DMEM; Gibco, Thermo Fisher Scientific, Leicestershire, UK) supplemented with 2 mM L-glutamine and 10% FBS (HyClone, GE Healthcare, Logan, UT, USA). MIA PaCa-2 cells were grown in DMEM (Gibco, Thermo Fisher Scientific, Leicestershire, UK) supplemented with 2 mM L-glutamine, 2.5% Horse Serum (Gibco, Thermo Fisher Scientific, Leicestershire, UK), and 10% FBS (HyClone, GE Healthcare, Logan, UT, USA). All culture media were supplemented with antibiotics: 100 U/mL penicillin (Polfa Tarchomin SA, Warsaw, Poland) and 100 µg/mL streptomycin (Sigma-Aldrich Chemie GmbH, Steinheim, Germany); cells were grown at 37 °C in a humid atmosphere with 5% CO2.
# (§2) Twenty-four hours prior to the addition of the tested compounds, 2000 cells per well of Balb/3T3, MIA PaCa-2, and Hs294T cell lines and 2500 cells of NCI-H1581 cell line were seeded in 384-well plates (Greiner Bio-One, Kremsmünster, Austria) in an appropriate medium. The studied compounds were added to the cells at 8 different concentrations in a series of dilutions from 100 to 0.00001 µg/mL for 72 h. Cisplatin was applied as a reference compound (Teva Pharmaceuticals, Warsaw, Poland). DMSO (Sigma-Aldrich Chemie GmbH, Steinheim, Germany) was used as solvent control. The DMSO concentrations corresponded to the solvent concentrations in the tested compound solutions. Then, 30 µL per well of ice-cold 50% TCA (trichloroacetic acid, Avantor, Gliwice, Poland) was added to the cells. After one hour of incubation at room temperature (RT) cells were washed five times with water and stained with 0.4% SRB (sulforhodamine B, Sigma-Aldrich Chemie GmbH, Steinheim, Germany). Twenty-five microliters per well of 0.4% solution of SRB in 1% acetic acid (Avantor, Gliwice, Poland) was applied. After 0.5 h of incubation at RT, the unbound dye was washed out with 1% acetic acid. The bound dye in each well was dissolved in 70 µl of 10 mM TRIS (Tris base, Sigma-Aldrich, Chemie GmbH, Steinheim, Germany). A microplate reader (BioTek Synergy H4, Swindon, UK) with Gen5 software was used to read the absorbance at 540 nm. The results are presented as mean IC50 values (concentration of the compound that inhibits cell proliferation by 50%) ± standard deviation. Half-maximal inhibitory concentration (IC50) values were calculated using the Prolab-3 system based on Cheburator 0.4 [22]. Each experiment was performed in triplicate, and three independent repetitions were made for each experiment. Raw data and IC50 values were placed in the supplementary materials.
# MIA PaCa-2 = assay: Growth inhibition assay (SRB assay), pancreatic tumor cell line MIA PaCa-2; format: cell-based, human; conditions: mean ± SD
# Protocol: as §1, §2
# NCI-H1581 = assay: Growth inhibition assay (SRB assay), lung tumor cell line NCI-H1581; format: cell-based, human; conditions: for SI (Selectivity Index): SI = IC50 for normal cell line BALB/3T3 / IC50 for NCI-H1581
# Protocol: as §1, §2
# BALB/3T3 clone A31 = assay: Growth inhibition assay (SRB assay), normal fibroblasts BALB/3T3 clone A31; format: cell-based, mouse; conditions: mean ± SD
# Protocol: as §1, §2
# [1] = Homo sapiens, Hs 294T, read-out: IC50 Hs294T
# [2] = Homo sapiens, Hs 294T, supplement, read-out: IC50 Hs294T (raw data)
# [3] = Homo sapiens, MIA PaCa-2, 72 h, read-out: IC50 MIA PaCa-2
# [4] = Homo sapiens, MIA PaCa-2, supplement, 72 h, read-out: IC50 MIA PaCa-2 (raw data)
# [5] = Homo sapiens, NCI-H1581, 72 h, 72 h, SRB, mean ± SD, read-out: IC50 NCI-H1581
# [6] = Homo sapiens, NCI-H1581, 72 h, supplement, 72 h, SRB, mean ± SD, read-out: IC50 NCI-H1581 (raw data)
# [7] = Mus musculus, BALB/3T3 clone A31, 72 h, normal cell line, read-out: IC50 BALB3T3
# [8] = Mus musculus, BALB/3T3 clone A31, 72 h, supplement, read-out: IC50 BALB3T3 (raw data)
# [9] = 72 h, SRB, mean ± SD, read-out: IC50 NCI-H1581
# [10] = 72 h, normal cell line, read-out: IC50 BALB3T3
SMILES,IC50 (Hs294T; [1]) [µM],IC50 (Hs294T; [2]) [µg/mL],IC50 (MIA PaCa-2; [3]) [µM],IC50 (MIA PaCa-2; [4]) [µg/mL],IC50 (NCI-H1581; [5]) [µM],IC50 (NCI-H1581; [6]) [µg/mL],SI (Selectivity Index) (NCI-H1581),IC50 (BALB/3T3 clone A31; [7]) [µM],IC50 (BALB/3T3 clone A31; [8]) [µg/mL],IC50 (NCI-H1581; [9]) [µM],IC50 (Hs294T; read-out: IC50 Hs294T) [µM],IC50 Hs294T (raw data) (Hs294T; supplement) [µg/mL],"IC50 (MIA PaCa-2; 72 h, read-out: IC50 MIA PaCa-2) [µM]","IC50 MIA PaCa-2 (raw data) (MIA PaCa-2; supplement, 72 h) [µg/mL]","IC50 (NCI-H1581; 72 h, SRB, mean ± SD, listed as cisplatin, read-out: IC50 NCI-H1581) [µM]","IC50 NCI-H1581 (raw data) (NCI-H1581; supplement, 72 h, SRB, mean ± SD) [µg/mL]",IC50 (BALB/3T3 clone A31; [10]) [µM],"IC50 BALB3T3 (raw data) (BALB/3T3 clone A31; supplement, 72 h) [µg/mL]"
"C[C@@H](c1ccccc1)N1C[C@H](n2cc(-c3cccc(N)c3)nn2)[C@@H]2CC[C@H]1C2 [Compound 7, 3-(1-((1S,4R,5R)-2-((S)-1-phenylethyl)-2-azabicyclo[3.2.1]octan-4-yl)-1H-1,2,3-triazol-4-yl)aniline]",65.9 ± 8.3,24.6 ± 3.1,77 ± 1.98,28.7 ± 0.74,7.39 ± 1.15,2.76 ± 0.43,7,52.7 ± 6.16,19.7 ± 2.3,,,,,,,,,
CC(c1ccccc1)N1CC(n2cc(C3C4CCC(C4)N3C(C)c3ccccc3)nn2)C2CCC1C2 (centres unmarked) [Compound 20],57 ± 13.6,27.5 ± 6.57,63 ± 7.29,30.4 ± 3.51,6.3,3.01 ± 0.66,6,39.4 ± 4.86,19 ± 2.34,6.25 ± 1.37,,,,,,,,
"C[C@@H](c1ccccc1)N1C[C@@H](n2cc(CN(Cc3cn([C@@H]4CN([C@@H](C)c5ccccc5)[C@H]5CC[C@@H]4C5)nn3)Cc3cn([C@@H]4CN([C@@H](C)c5ccccc5)[C@H]5CC[C@@H]4C5)nn3)nn2)[C@@H]2CC[C@H]1C2 [Compound 18, N,N,N-tri((1-((1S,4S,5R)-2-((S)-1-phenylethyl)-2-azabicyclo[3.2.1]octan-4-yl)-1H-1,2,3-triazol-4-yl)methyl) amine]",20.8 ± 5.02,18.8 ± 4.52,25.7 ± 0.26,23.11 ± 0.23,2.4,2.2 ± 0.06,,23.1 ± 2.72,20.8 ± 2.45,2.44 ± 0.07,,,,,,,,
"C[C@@H](c1ccccc1)N1C[C@@H](n2cc(COCc3ccccc3)nn2)[C@@H]2CC[C@H]1C2 [Compound 8, (1S,4S,5R)-4-(4-((benzyloxy)methyl)-1H-1,2,3-triazol-1-yl)-2-((S)-1-phenylethyl)-2-azabicyclo[3.2.1]octane]",73.8 ± 10.1,29.7 ± 4.07,79.12 ± 0.5,31.85 ± 0.2,15.48 ± 0.12,6.23 ± 0.05,4,61.5 ± 3.28,24.7 ± 1.32,,,,,,,,,
"C=CC(=O)OCc1cn([C@@H]2CN([C@@H](C)c3ccccc3)[C@H]3CC[C@@H]2C3)nn1 [Compound 4, (1-((1S,4S,5R)-2-((S)-1-phenylethyl)-2-azabicyclo[3.2.1]octan-4-yl)-1H-1,2,3-triazol-4-yl)methyl acrylate]",9.52 ± 2.51,3.49 ± 0.92,87.7 ± 1.66,32.1 ± 0.61,7.91 ± 1.2,2.9 ± 0.44,0.2,1.75 ± 0.76,0.64 ± 0.28,,,,,,,,,
"C[C@@H](c1ccccc1)N1C[C@@H](n2cc(-c3cccc(N)c3)nn2)[C@@H]2CC[C@H]1C2 [Compound 6, 3-(1-((1S,4S,5R)-2-((S)-1-phenylethyl)-2-azabicyclo[3.2.1]octan-4-yl)-1H-1,2,3-triazol-4-yl)aniline]",74.5 ± 14.9,27.8 ± 5.58,84.4 ± 1.04,31.5 ± 0.39,30.8 ± 3.51,11.5 ± 1.31,2.5,77.1 ± 1.1,28.8 ± 0.41,,,,,,,,,
"C[C@@H](c1ccccc1)N1C[C@H](n2cc(CO)nn2)[C@@H]2CC[C@H]1C2 [Compound 2, (1-((1S,4R,5R)-2-((S)-1-phenylethyl)-2-azabicyclo[3.2.1]octan-4-yl)-1H-1,2,3-triazol-4-yl)methanol]",> 100,46.1 ± 2.17,> 100,71.4 ± 11.8,72.3 ± 34,22.6 ± 10.6,,> 100,56.1 ± 8.24,,,,,,,,,
"C=CC(=O)OCc1cn([C@H]2CN([C@@H](C)c3ccccc3)[C@H]3CC[C@@H]2C3)nn1 [Compound 5, (1-((1S,4R,5R)-2-((S)-1-phenylethyl)-2-azabicyclo[3.2.1]octan-4-yl)-1H-1,2,3-triazol-4-yl)methyl acrylate]",72.8 ± 9.71,26.7 ± 3.56,86.31 ± 0.35,31.63 ± 0.13,18.8 ± 4.45,6.88 ± 1.63,1.5,28.5 ± 22.7,10.5 ± 8.31,,,,,,,,,
"C[C@@H](c1ccccc1)N1C[C@H](n2cc(COCc3ccccc3)nn2)[C@@H]2CC[C@H]1C2 [Compound 9, (1S,4R,5R)-4-(4-((benzyloxy)methyl)-1H-1,2,3-triazol-1-yl)-2-((S)-1-phenylethyl)-2-azabicyclo[3.2.1]octane]",70.9 ± 5.86,28.5 ± 2.36,76.5 ± 4.37,30.8 ± 1.76,8.52 ± 1.39,3.43 ± 0.56,6,50 ± 3.25,20.1 ± 1.31,,,,,,,,,
"N.N.[Cl][Pt][Cl] [Cisplatin, reference compound]",,,,,,,0.3,,,7.27 ± 2.83,1.3 ± 0.5,0.39 ± 0.15,12.6 ± 3.13,3.79 ± 0.94,7.3,2.18 ± 0.85,1.83 ± 0.7,0.55 ± 0.21
"C[C@@H](c1ccccc1)N1C[C@@H](n2cc(CN)nn2)[C@@H]2CC[C@H]1C2 [Compound 3, (1-((1S,4S,5R)-2-((S)-1-phenylethyl)-2-azabicyclo[3.2.1]octan-4-yl)-1H-1,2,3-triazol-4-yl)methanamine]",88.5 ± 9.41,27.6 ± 2.93,99.9 ± 4.46,31.1 ± 1.39,11.3 ± 1.25,3.51 ± 0.39,8,94.4 ± 1.89,29.4 ± 0.59,,,,,,,,,
"C[C@@H](c1ccccc1)N1C[C@H](n2cc(COCc3cn([C@H]4CN([C@@H](C)c5ccccc5)[C@H]5CC[C@@H]4C5)nn3)nn2)[C@@H]2CC[C@H]1C2 [Compound 13, (1S,1′S,4R,4′R,5R,5′R)-4,4′-(4,4′-(oxybis(methylene))bis(1H-1,2,3-triazole-4,1-diyl))bis(2-((S)-1-phenylethyl)-2-azabicyclo[3.2.1]octane)]",13.7 ± 2.31,8.28 ± 1.4,44.9 ± 3.69,27.2 ± 2.24,4.88 ± 0.41,2.96 ± 0.25,9,46.1,27.9 ± 6.85,,,,,,,,46.1 ± 11.3,
"C[C@@H](c1ccccc1)N1C[C@@H](n2cc(CCCc3cn([C@@H]4CN([C@@H](C)c5ccccc5)[C@H]5CC[C@@H]4C5)nn3)nn2)[C@@H]2CC[C@H]1C2 [Compound 10, 1,3-Bis-(1-((1S,4S,5R)-2-((S)-1-phenylethyl)-2-azabicyclo[3.2.1]octan-4-yl)-1H-1,2,3-triazol-4-yl) propane]",10.3 ± 3.39,6.26 ± 2.05,40.2 ± 1.6,24.3 ± 0.97,4.2 ± 0.36,2.54 ± 0.22,3,11.8 ± 5.03,7.17 ± 3.04,,,,,,,,,
